The structures appear in SMILES notation.

The term IC50 denotes the concentration at which inhibition is half-maximal.

One test deals with USP7 (Homo sapiens (Human), UniProt Q93009). Kind of test: USP7 fluorescence polarisation (FP) biochemical assay, ubiquitin-Lys-TAMRA substrate.
USP7, sequence (Q93009 whole entry): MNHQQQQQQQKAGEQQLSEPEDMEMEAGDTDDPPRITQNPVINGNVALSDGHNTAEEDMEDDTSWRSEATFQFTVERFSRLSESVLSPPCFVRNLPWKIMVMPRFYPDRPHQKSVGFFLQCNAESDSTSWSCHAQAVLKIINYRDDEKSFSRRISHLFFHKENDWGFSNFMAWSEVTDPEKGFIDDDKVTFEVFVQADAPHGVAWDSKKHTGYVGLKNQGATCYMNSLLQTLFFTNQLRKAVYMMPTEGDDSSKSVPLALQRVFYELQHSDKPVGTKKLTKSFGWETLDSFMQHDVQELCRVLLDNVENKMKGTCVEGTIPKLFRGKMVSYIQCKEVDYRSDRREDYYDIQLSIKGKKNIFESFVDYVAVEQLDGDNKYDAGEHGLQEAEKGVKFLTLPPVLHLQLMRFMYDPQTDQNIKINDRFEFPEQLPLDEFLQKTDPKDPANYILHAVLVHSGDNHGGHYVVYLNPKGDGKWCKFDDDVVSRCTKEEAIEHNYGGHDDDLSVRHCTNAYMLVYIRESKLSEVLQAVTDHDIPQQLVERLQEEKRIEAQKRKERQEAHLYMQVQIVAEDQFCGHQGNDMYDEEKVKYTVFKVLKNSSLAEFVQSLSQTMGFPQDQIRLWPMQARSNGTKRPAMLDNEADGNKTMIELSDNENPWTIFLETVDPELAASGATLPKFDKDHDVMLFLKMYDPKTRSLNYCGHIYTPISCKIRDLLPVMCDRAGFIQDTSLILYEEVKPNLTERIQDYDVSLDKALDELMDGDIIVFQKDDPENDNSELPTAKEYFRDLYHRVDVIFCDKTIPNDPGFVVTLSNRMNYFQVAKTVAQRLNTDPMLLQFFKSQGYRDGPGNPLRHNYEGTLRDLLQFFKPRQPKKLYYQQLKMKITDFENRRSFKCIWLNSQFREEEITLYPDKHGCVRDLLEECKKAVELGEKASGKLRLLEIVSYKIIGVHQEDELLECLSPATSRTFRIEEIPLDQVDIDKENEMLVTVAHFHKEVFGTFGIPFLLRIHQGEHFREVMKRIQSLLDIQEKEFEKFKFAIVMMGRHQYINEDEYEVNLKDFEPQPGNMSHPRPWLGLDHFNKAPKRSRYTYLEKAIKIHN
Details: not given
Here is the method: Measurement of USP7 Inhibitory Activity
USP7 activity was monitored in a fluorescence polarisation (FP) homogeneous assay using the isopeptide ubiquitin-Lys-TAMRA substrate (U-558, Boston Biochem). Full-length USP7 was purchased from Boston Biochem (His6-USP7FL, E-519). Unless otherwise stated, all other reagents were purchased from Sigma-Aldrich. Enzymatic reactions were conducted in black flat-bottom polystyrene 384-well plates (Nunc) and 15 μL total volume. USP7 (2.5 nM, 5 μL) was incubated in assay buffer (50 mM HEPES (pH 7.2), 150 mM NaCl, 0.5 mM EDTA, 5 mM DTT, 0.05% BSA (w/v), 0.05% CHAPS) in the presence or absence of inhibitor (5 μl). Inhibitors were stored as 10 mM DMSO stocks in an inert environment (low humidity, dark, low oxygen, room temperature) using a Storage Pod System and serial dilutions were prepared in buffer just prior to the assay (from 200 to 0.1 μM, 8 dp curve). […] FP was measured every 15 min over a period of 1.5 h (within the linear range of the assay) using a Synergy 4 plate reader (BioTek) exciting at 530 nm and measuring the amount of parallel and perpendicular light at 575 nm. The FP signal was subsequently normalised to the control without compound present.
(In fluorescence polarisation assays a small probe gives low polarisation when free and higher when bound to something large.)
As for `C[C@H](CC(=O)N1CCC(O)(Cn2cnc3c(-c4cccc(CN5CCOCC5)c4)n(C)nc3c2=O)CC1)c1ccccc1` [Example 108, (R)-6-((4-Hydroxy-1-(3-phenylbutanoyl)piperidin-4-yl)methyl)-2-methyl-3-(3-(morpholinomethyl)phenyl)-2H-pyrazolo[4,3-d]pyrimidin-7(6H)-one], the IC50 lay in the range of 250 to 999 nM.

Staying with this test, now noted: Table 4, biochemical assay; average of at least duplicate experiments; read-out: USP7 IC50.
Regarding `O=C(c1cnc(C2CC2)o1)N1CCC(O)(Cn2cnc3c(cc(Cl)n3-c3cccc(C4CC4)c3)c2=O)CC1` [Example 217, 6-Chloro-3-((1-(2-cyclopropyloxazole-5-carbonyl)-4-hydroxypiperidin-4-yl)methyl)-7-(3-cyclopropylphenyl)-3H-pyrrolo[2,3-d]pyrimidin-4(7H)-one], the IC50 is less than 250 nM.
Still for that read-out and setting: the same measure for `Cn1nc2c(=O)n(CC3(O)CCN(C(=O)c4cnc(C5CC5)o4)CC3)cnc2c1-c1ccccc1` [Example 196, 6-((1-(2-Cyclopropyloxazole-5-carbonyl)-4-hydroxypiperidin-4-yl)methyl)-2-methyl-3-phenyl-2H-pyrazolo[4,3-d]pyrimidin-7(6H)-one]: 1000 to 200000 nM; for `CN(C)CC#Cc1c2ncn(CC3(O)CCN(C(=O)C[C@H](c4ccccc4)C(F)(F)F)CC3)c(=O)c2nn1C` [Example 135, (R)-3-(3-(Dimethylamino)prop-1-yn-1-yl)-6-((4-hydroxy-1-(4,4,4-trifluoro-3-phenylbutanoyl)piperidin-4-yl)methyl)-2-methyl-2H-pyrazolo[4,3-d]pyrimidin-7(6H)-one]: 1000 to 200000 nM.
The same measure, in the same setting: the same measure for `O=C(C[C@H](c1ccccc1)C(F)(F)F)N1CCC(O)(Cn2cnc3c(ncn3-c3ccccc3)c2=O)CC1` [Example 128, (R)-1-((4-Hydroxy-1-(4,4,4-trifluoro-3-phenylbutanoyl)piperidin-4-yl)methyl)-9-phenyl-1H-purin-6(9H)-one]: 250 to 999 nM.
Same read-out and setting: the same measure for `Cn1nc2c(=O)n(CC3(O)CCN(C(=O)C[C@H](c4ccccc4)C(F)(F)F)CC3)cnc2c1-c1ccc(C2(N)CCC2)cc1` [Example 88, (R)-3-(4-(1-Aminocyclobutyl)phenyl)-6-((4-hydroxy-1-(4,4,4-trifluoro-3-phenylbutanoyl)piperidin-4-yl)methyl)-2-methyl-2H-pyrazolo[4,3-d]pyrimidin-7(6H)-one]: less than 250 nM; for `C[C@H](CC(=O)N1CCC(O)(Cn2cnc(N3CCCC3CNC(=O)OC(C)(C)C)cc2=O)CC1)c1ccccc1` (stereo partly drawn) [Example 147, tert-butyl ((1-(1-((4-hydroxy-1-((R)-3-phenylbutanoyl)piperidin-4-yl)methyl)-6-oxo-1,6-dihydropyrimidin-4-yl)pyrrolidin-2-yl)methyl)carbamate]: 1000 to 200000 nM.
In the case of `C[C@H](CC(=O)N1CCC(O)(Cn2cnc(NC[C@@H]3CCCN3C)cc2=O)CC1)c1ccccc1` [Example 66, 3-((4-Hydroxy-1-((R)-3-phenylbutanoyl)piperidin-4-yl)methyl)-6-((((S)-1-methylpyrrolidin-2-yl)methyl)amino)pyrimidin-4(3H)-one, Formic Acid], the IC50 was in the range of 1000 to 200000 nM.
Same read-out and setting: the same measure for `C[C@H](CC(=O)N1CCC(O)(Cn2cnc(NCC(=O)N(C)C)cc2=O)CC1)c1ccccc1` [Example 161, (R)-2-((1-((4-hydroxy-1-(3-phenylbutanoyl)piperidin-4-yl)methyl)-6-oxo-1,6-dihydropyrimidin-4-yl)amino)-N,N-dimethylacetamide]: 1000 to 200000 nM.
Turning to `CS(=O)(=O)c1nc2ncn(CC3(O)CCN(C(=O)CCc4ccccc4)CC3)c(=O)c2s1` [Example 92, 6-((4-Hydroxy-1-(3-phenylpropanol)piperidin-4-yl)methyl)-2-(methylsulfonyl)thiazolo[4,5-d]pyrimidin-7(6H)-one], the IC50 fell in the range of 1000 to 200000 nM.
Still for that read-out and setting: under `C[C@H](CC(=O)N1CCC(O)(Cn2cnc(N(CCO)Cc3cccnc3)cc2=O)CC1)c1ccccc1` [Example 177, (R)-3-((4-hydroxy-1-(3-phenylbutanoyl)piperidin-4-yl)methyl)-6-((2-hydroxyethyl)(pyridin-3-ylmethyl)amino)pyrimidin-4(3H)-one] stands 1000 to 200000 nM; under `C[C@H](CC(=O)N1CCC(O)(Cn2cnc(Cl)c(N)c2=O)CC1)c1ccccc1` [Example 14, (R)-5-Amino-6-chloro-3-((4-hydroxy-1-(3-phenylbutanoyl)piperidin-4-yl)methyl)pyrimidin-4(3H)-one], 1000 to 200000 nM; under `C[C@H](CC(=O)N1CCC(O)(Cn2cnc(NCCN3CCC[C@H]3C)cc2=O)CC1)c1ccccc1` [Example 114, 3-((4-Hydroxy-1-((R)-3-phenylbutanoyl)piperidin-4-yl)methyl)-6-((2-((R)-2-methylpyrrolidin-1-yl)ethyl)amino)pyrimidin-4(3H)-one, Formic Acid], less than 250 nM.
On to `C[C@H](CC(=O)N1CCC(O)(Cn2cnc3c(Nc4ccccc4)n(C)nc3c2=O)CC1)c1ccccc1` [Example 43, (R)-6-((4-Hydroxy-1-(3-phenylbutanoyl)piperidin-4-yl)methyl)-2-methyl-3-(phenylamino)-2H-pyrazolo[4,3-d]pyrimidin-7(6H)-one], for which the IC50 is 1000 to 200000 nM.
`COCC1CN(c2cc(=O)n(CC3(O)CCN(C(=O)C[C@@H](C)c4ccccc4)CC3)cn2)C1` [Example 141, (R)-3-((4-hydroxy-1-(3-phenylbutanoyl)piperidin-4-yl)methyl)-6-(3-(methoxymethyl)azetidin-1-yl)pyrimidin-4(3H)-one]: the IC50 is 1000 to 200000 nM.
As for `CC1(C(=O)N2CCC(O)(Cn3cnc4c(cc(Cl)n4-c4cccc(-n5cc(F)cn5)c4)c3=O)CC2)CC1` [Example 227, 6-Chloro-7-(3-(4-fluoro-1H-pyrazol-1-yl)phenyl)-3-((4-hydroxy-1-(1-methylcyclopropanecarbonyl)piperidin-4-yl)methyl)-3H-pyrrolo[2,3-d]pyrimidin-4(7H)-one], the IC50 is less than 250 nM.
On the same count and under the same terms, the same measure for `C[C@H](CC(=O)N1CCC(O)(Cn2cnc(N3CC(C(=O)NCC4CC4)C3)cc2=O)CC1)c1ccccc1` [Example 164, (R)-N-(cyclopropylmethyl)-1-(1-((4-hydroxy-1-(3-phenylbutanoyl)piperidin-4-yl)methyl)-6-oxo-1,6-dihydropyrimidin-4-yl)azetidine-3-carboxamide]: 1000 to 200000 nM; for `C[C@H](CN1CCCC1)Nc1cc(=O)n(CC2(O)CCN(C(=O)C[C@@H](C)c3ccccc3)CC2)cn1` [Example 60, 3-((4-Hydroxy-1-((R)-3-phenylbutanoyl)piperidin-4-yl)methyl)-6-(((R)-1-(pyrrolidin-1-yl)propan-2-yl)amino)pyrimidin-4(3H)-one, Formic Acid]: less than 250 nM.

The test is the same for the next values; noted with them: USP7 IC50, Table 4, biochemical assay; average of at least duplicate experiments.
Take `C[C@H](CC(=O)N1CCC(O)(Cn2cnc(N3CC4(CCCN4C)C3)cc2=O)CC1)c1ccccc1` [Example 178, (R)-3-((4-hydroxy-1-(3-phenylbutanoyl)piperidin-4-yl)methyl)-6-(5-methyl-2,5-diazaspiro[3.4]octan-2-yl)pyrimidin-4(3H)-one]: the IC50 fell in the range of 250 to 999 nM.
The same measure, in the same setting: under `C[C@H](CC(=O)N1CCC(O)(Cn2cnc(NC3CCCC3)cc2=O)CC1)c1ccccc1` [Example 167, (R)-6-(cyclopentylamino)-3-((4-hydroxy-1-(3-phenylbutanoyl)piperidin-4-yl)methyl)pyrimidin-4(3H)-one] stands 250 to 999 nM.

Source of the values: US10766903B2 (ALMAC DISCOVERY LIMITED, priority 2016, dated 2020).
